From PubChem BioAssay AID463229 (Broad Institute, 2010) come the findings set out here.

One may read the AC50 as the concentration giving half of the maximal activity seen.

Molecules are shown by their SMILES. Activity calls are given as the source filed them.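 The calls were made as follows: active = compounds raising the signal whose fitted half-maximal concentration is at or below their top tested dose (cut at about 25 µM in these data); inconclusive = flat fit at 30 to 70% activity, or a poor fit; inactive = the rest.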

This assay has as its system INS-1E rat beta cells, no cytokines, CellTiter-Glo ATP, 48 h. The assay can be described thus: cytokine-free beta-cell viability effect – INS-1E rat cells, ATP luminescence, cherry pick, counter-screen for beta-cell apoptosis protection project, dose response (AID 463229). For orientation: A counterscreen serves to expose hits that act by an unwanted route or on another target.
Turning to `COc1ccc(OCc2n(CC(=O)OC3CC(C)CCC3C(C)C)c3ccccc3[n+]2C)cc1` (stereo not given), the AC50 was 4.3 µM.

For the compound `Cc1csc2ncnc(N3CCN(S(=O)(=O)c4cccc(C(F)(F)F)c4)CC3)c12`, the AC50 was 5.81 µM.

In the case of `CC[C@H](C)Cc1cn([C@@H](CCCCNC(=O)OC(C)(C)C)C(=O)NCCCCCCCCCCC(=O)N2CCN(C(=O)OC(C)(C)C)CC2)nn1`, the AC50 is 20.2 µM.

`CCOc1ccc(Nc2nc(Cc3nnc(SCC(=O)c4ccc(C)c(C)c4)o3)cs2)cc1`: the AC50 was 10.6 µM.

With `C/C(=N\NC(=O)COc1ccccc1-c1ccccc1)c1ccc(O)cc1O`, the AC50 is 10.5 µM.

As to `CNC[C@H](Cc1ccccc1)NC[C@@H](Cc1cccc2ccccc12)NCCc1ccc(C)cc1`, the AC50 was 7.64 µM.

With `C#CC(=O)N(c1cccc(OC)c1)C(C(=O)NC1CCCC1)c1cccs1` (stereo not given), the AC50 was 14.7 µM.

Turning to `[O-][n+]1onc2c1CCc1c-2nn(-c2ccccc2Cl)[n+]1[O-]`, the AC50 is 7.37 µM.

Take `COc1cnc(-c2ccccn2)nc1Oc1ccc(Cl)c2ccccc12`: the AC50 was 15.3 µM.

On to `CN1/C(=C\C(=O)CN2C(=O)NC3(CCCCCC3)C2=O)C(C)(C)c2ccccc21`, for which the concentration at half-maximal activity (AC50) was 7.99 µM.

For the compound `O=S(=O)(c1ccc(Cl)cc1)N1CCN(c2ncnc3sccc23)CC1`, the AC50 is 6.65 µM.

Turning to `CCOC(=O)c1c(C)[nH]c(C)c1C(=O)CSc1nc2ccccc2c(=O)n1-c1ccc(CC)cc1`, the AC50 was 5.33 µM.

Regarding `CCCCCc1cc(=O)oc2c(C(CCN3CCCCC3)c3ccc4c(c3)OCO4)c(OC)cc(OC)c12` (stereo not given), the AC50 was 7.89 µM.

Consider `Cc1ccc(NC(=O)/C=C/c2ccc([N+](=O)[O-])s2)c(C)c1`, for which the AC50 is 13.1 µM.

Regarding `Cc1[nH]c(N=Nc2ccccc2)nc1N=Nc1ccccc1`, the concentration at half-maximal activity (AC50) is 8.16 µM.

As for `O=C(Nc1cc(Sc2ccccn2)cc([N+](=O)[O-])c1)c1cccc(F)c1`, the AC50 is 8.51 µM.

As to `CC(C)CCCCCCNC(=S)Nc1ccc(S(=O)(=O)N2CCOCC2)cc1`, the AC50 was 12.6 µM.

On to `Oc1ccc(-c2n[nH]c(C(F)(F)F)c2-c2ccccc2)c(O)c1`, for which the AC50 was 5.86 µM.

Turning to `COc1ccc(C)cc1Nc1n[n+](-c2ccccc2)c(-c2c(Cl)cccc2Cl)s1`, the AC50 is 4.15 µM.

Regarding `COc1ccc(NS(=O)(=O)c2cccc(NC(=O)c3ccc(S(=O)(=O)N4CCCCCC4)cc3)c2)cc1`, the AC50 was 4.24 µM.

In the case of `CCCCCCCCCCOC(=O)Cn1c(COc2cccc(OC)c2)[n+](C)c2ccccc21`, the AC50 is 3.47 µM.

In the case of `CCCCNc1cc(C)nc(NCc2ccccc2)n1`, the AC50 was 8.1 µM.

For `CC1(C)CCN2CCC(C)(C)c3c(O)ccc1c32`, the AC50 was 13.2 µM.

In the case of `c1nc(NCc2ccc3c(c2)OCO3)c2cc(-c3ccc4c(c3)OCCO4)ccc2n1`, the AC50 was 15.5 µM.

Turning to `Oc1c(Br)cc(Br)cc1/C=N/Nc1ccc(Cl)nn1`, the AC50 was 1.21 µM.

Turning to `CCCCCCCCn1c(=O)c(C(=O)OC)c(N)c2ccccc21`, the AC50 was 4.89 µM.

Regarding `CC1(C)C[C@@H]2C[C@@](C)(CN2C(=O)c2cc(COc3cccc(C(F)(F)F)c3)on2)C1`, the AC50 was 17 µM.

On to `O=C(Nc1ccc(Br)c(C(F)(F)F)c1)c1ccc(C(F)(F)F)cc1`, for which the AC50 was 7.74 µM.

Turning to `CCOc1ccc(-n2c(-c3ccc(Br)cc3)c[n+]3c2CCCCC3)cc1`, the AC50 is 1 µM.

In the case of `Oc1c(CN2CCN(c3ccccc3)CC2)cc(Br)c2cccnc12`, the AC50 is 5.87 µM.

In the case of `COc1cc(CNC(C)c2ccccc2)cc(Br)c1OCc1ccc(F)cc1` (stereo not given), the concentration at half-maximal activity (AC50) is 13.8 µM.

On to `Cc1ccc(-c2cn(-c3ccc(SC(F)F)cc3)c3[n+]2CCC3)cc1`, for which the AC50 is 5.91 µM.

`O=C(NNC(=O)c1ccccc1O)c1ccc(Cl)c(S(=O)(=O)N2CCc3ccccc32)c1`: the AC50 is 7.82 µM.

As to `O=[N+]([O-])c1ccc(/C=N/n2c(CO)nc3ccccc32)s1`, the concentration at half-maximal activity (AC50) is 10.8 µM.

In the case of `Nc1nc(-c2ccccn2)nc(N)c1Cc1ccc(Cl)cc1Cl`, the AC50 was 11.9 µM.

In the case of `CCCOc1cc(NCc2ccccc2)c2ncn(C(C)C)c2c1`, the AC50 was 7.28 µM.

Turning to `COc1cc(/C=C/C(=O)c2ccc([N+](=O)[O-])o2)ccc1O`, the AC50 was 3.91 µM.

`Cc1cc2nc(-c3ccc(NC(=O)c4cccnc4)cc3)oc2cc1C`: the half-maximal activity concentration (AC50) was 9.26 µM.

As for `CC1=C/C(=N\OS(=O)(=O)c2ccccc2)C(C(C)C)=CC1=O`, the AC50 was 6.84 µM.

With `Cc1cc(N/N=C/c2ccc(F)cc2)nc(-n2nc(C)cc2C)n1`, the half-maximal activity concentration (AC50) is 20.1 µM.

Consider `COc1cccc(/C=N/NC(=O)c2c(C)nc3ccc(Br)cn23)c1O`, for which the concentration at half-maximal activity (AC50) is 3.16 µM.

On to `CC(=O)c1sc(NC(=O)C2(F)C(F)(F)C(F)(F)C(F)(F)C(F)(F)C2(F)F)nc1C`, for which the AC50 is 4.17 µM.

Regarding `O=C(NCCc1ccccc1)[C@@H]1CC=C[C@@H]2CCN(Cc3ccc(Cl)c(Cl)c3)C(=O)[C@@H]21`, the AC50 is 13.2 µM.

On to `CCc1ccc(S(=O)(=O)/N=C2\C=C(Nc3ccc(C(=O)O)cc3)C(=O)c3ccccc32)cc1`, for which the AC50 is 14.7 µM.

`CN(c1ccccc1)S(=O)(=O)c1ccc(NC(=O)c2nc(S(C)(=O)=O)ncc2Cl)cc1`: the concentration at half-maximal activity (AC50) is 7.32 µM.

`CCOC(=O)c1ccc(NC(=O)NCc2cccnc2)cc1`: the AC50 is 2.01 µM.

As to `COC1=C(Nc2ccccc2OC)C(=O)c2ccccc2C1=O`, the AC50 was > 26 µM (inactive).

For the compound `Cc1ccc(NC(=O)c2ccc([N+](=O)[O-])o2)cc1S(=O)(=O)N1CCOCC1`, the AC50 is 14.3 µM.

Turning to `COc1cc(/C=C2\CC/C(=C\c3cc(OC)c(O)c(OC)c3)C2=O)cc(OC)c1O`, the AC50 is 4.29 µM.

On to `O=C(c1ccccc1)c1c2c(cc3sc4ccccc4[n+]13)-c1cccc3cccc-2c13`, for which the AC50 is 2.26 µM.

Take `Cc1ccc(/C=N/NC(=O)Cc2ccc(Cl)cc2)c(O)c1`: the half-maximal activity concentration (AC50) is 12.3 µM.

With `N#CC(C#N)=C1C=CC=CN1/C(=C\c1ccco1)C(=O)c1ccc(Br)cc1`, the AC50 was 8.57 µM.

In the case of `COc1ccc(C(=O)C/C(=C\C(=O)c2ccc(C)cc2)c2ccccc2)cc1`, the AC50 is 7.67 µM.

As to `CCCCC(=O)NC(c1ccc(Cl)cc1)c1ccc2cccnc2c1O` (stereo not given), the AC50 is 1.35 µM.

For `CCCCCCCCCn1ccc(=N)cc1`, the AC50 was 0.553 µM.

Take `COc1ccc(Cc2nnc(N/N=C/c3ccc(O)cc3)[nH]c2=O)cc1OC`: the concentration at half-maximal activity (AC50) was 4.32 µM.

Regarding `O=C(NNc1ccccc1Br)C(O)(c1cccc(C(F)(F)F)c1)c1cccc(C(F)(F)F)c1`, the AC50 was 7.06 µM.

With `CCCCOc1ccc(-c2cc(C(=O)NNC(=S)NCC)c3ccccc3n2)cc1`, the AC50 is 6.66 µM.

As to `C=CC(C)(C)c1c(O)c(CC=C(C)C)c(O)c2c(=O)c3ccc(O)c(O)c3oc12`, the AC50 is 5.39 µM.

Take `O=[N+]([O-])c1cc(C(F)(F)F)ccc1NCCCCNS(=O)(=O)c1ccc(Cl)cc1`: the AC50 was 6.94 µM.

Regarding `CC(C)Oc1ccc(S(=O)(=O)N2CCCCC2)cc1NC(=O)CN1CCCC1c1cccs1` (stereo not given), the AC50 is 6.59 µM.

As for `CCOc1ccc2nc(NC(=O)c3ccccn3)sc2c1`, the AC50 was 6.67 µM.

As for `Cc1ccc(-c2c[n+]3c(n2-c2ccccc2)CCC3)cc1`, the AC50 is 2.02 µM.

In the case of `Cc1cccc(Nc2nc(NCc3ccco3)c3ccccc3n2)c1`, the half-maximal activity concentration (AC50) was 8.03 µM.

On to `Cc1ccc(C(=O)N/C(=C\c2ccc(-c3ccc(Br)cc3)o2)C(=O)NCCCN(C)C)cc1`, for which the AC50 was 7.87 µM.

As for `O=C(CNc1ccccc1)N/N=C/c1c(O)ccc2ccccc12`, the AC50 was 15.8 µM.

For the compound `COc1cc2sc(-c3ccccc3OC)c(-c3ccc(OCCN4CCCCC4)cc3)c2cc1OC`, the concentration at half-maximal activity (AC50) was 7.57 µM.

In the case of `CCOC(=O)/C(=C\c1ccc(OC(F)F)cc1)C1=Nn2c(nnc2-c2ccc(Cl)cc2)SC1`, the AC50 was 5.5 µM.

For `Cc1oc2c(c1C(=O)c1ccccc1)C(=O)C(=O)c1ccccc1-2`, the AC50 was 3.52 µM.

For `Oc1ccc(Br)cc1/C=N/Nc1ccccn1`, the concentration at half-maximal activity (AC50) is 4.28 µM.

Turning to `CCCCCCCCCCn1c2c(c(=N)c3c1CCC3)CCC2`, the concentration at half-maximal activity (AC50) is less than 0.195 µM.

For `COCCN(C(=O)COC(=O)C1CCC(C(C)(C)C)CC1)c1c(N)n(Cc2ccccc2)c(=O)[nH]c1=O` (stereo not given), the AC50 is 2.17 µM.

Regarding `Cc1ccc2c(c1)nnn2C1CCN(S(=O)(=O)c2ccc(C(=O)N3C(C)CCCC3C)cc2)CC1` (stereo not given), the AC50 is 7.75 µM.

Consider `Cc1cc(C)nc(SCC(=O)Nc2ccnc3ccccc23)n1`, for which the AC50 is 7.55 µM.

For the compound `N=c1c2c(n(Cc3ccc(Cl)c(Cl)c3)c3c1CCC3)CCCC2`, the AC50 is 3.57 µM.

On to `Cc1ccc(NC(=O)c2cc(S(=O)(=O)NCCC3=CCCCC3)ccc2F)cc1F`, for which the AC50 is 6.58 µM.

In the case of `Cc1ccc(-c2csc(NC(=O)c3c(C)noc3C)n2)s1`, the AC50 was 4.85 µM.

As to `Cc1ccc(S(=O)(=O)Nc2ccc(NC(=O)Nc3cccc(C(F)(F)F)c3)cc2)cc1`, the AC50 was 11.9 µM.

For `CCC(C)(C)c1ccc(OCCCC[n+]2ccccc2)c(C(C)(C)CC)c1`, the AC50 is 2.27 µM.

Consider `CCc1nnc(NC(=O)c2cccc(C(=O)Nc3nnc(CC)s3)n2)s1`, for which the AC50 is 2.98 µM.

For the compound `COC(=O)C1CCCCN1C(=O)c1cc(COc2cccc3cnccc23)on1` (stereo not given), the AC50 is 7.11 µM.

Take `Cc1ccc2c(c1)c(/C=C/c1cc[n+](C)cc1)c(C)n2C`: the AC50 was 3.97 µM.

For the compound `COc1ccc2nc(C)cc(N/N=C/c3ccccc3)c2c1`, the AC50 is 13.8 µM.

As to `CCCOc1ccc(/C=N/Nc2cc(N3CCOCC3)ncn2)c(O)c1`, the half-maximal activity concentration (AC50) was 8.02 µM.

Take `COc1ccccc1C(=O)Nc1nc(-c2ccc(S(=O)(=O)N3CCOCC3)cc2)cs1`: the AC50 is 5.29 µM.

With `CC(C)COCc1ccc(O)c2ncccc12`, the AC50 was 8.01 µM.

Turning to `COc1ccc(OC)c2c1C(=O)C(Cl)=C(Cl)C2=O`, the AC50 was 8.18 µM.

As for `c1ccc2c(CN3CCCCCCC3)c[nH]c2c1`, the AC50 is 4.48 µM.

Take `O=C(NCc1cccnc1)c1cc(-c2ccco2)on1`: the concentration at half-maximal activity (AC50) was 2.27 µM.

As to `Cc1nc(Nc2cnc(/C=C/c3cc(C(=O)Nc4cccc(C(F)(F)F)c4)ccc3C)cn2)cc(N2CCNCC2)n1`, the AC50 was 12.3 µM.

On to `CCC(=NNC(=O)c1ccc2c(c1)nc(C)n2CC)c1cc(F)ccc1O`, for which the AC50 is 9.84 µM.

Take `C=CCn1nc([N+](=O)[O-])nc1Sc1cccc2cccnc12`: the AC50 is 6.79 µM.

For the compound `CCC1CCCCN1C(=O)c1cc(COc2ccc3ncccc3c2)on1` (stereo not given), the AC50 is 2.74 µM.

`CC1=C(CC(=O)c2ccc(Cl)cc2)C(=O)c2ccccc2C1=O`: the concentration at half-maximal activity (AC50) was 26.6 µM.

On to `CC1=C(C)/C(=N\OS(=O)(=O)c2ccc(C)cc2)C=CC1=O`, for which the AC50 is 4.47 µM.
